# Test results: patent US8906826B2, “Herbicidal compositions comprising 4-amino-3-chloro-5-fluoro-6-(4-chloro-2-fluoro-3-methoxyphenyl) pyridine-2-carboxylic acid or a derivative thereof and imidazolinones” (Dow AgroSciences, LLC, priority 2012, dated 2014)
# Tested on: CYPRO
# Assay: In-water applied, transplanted paddy rice weeds (Example II)
# Format: in vivo, Cyperus rotundus L.
# Description: Weed seeds or nutlets of the desired test plant species were planted in puddled soil (mud) prepared by mixing a shredded, non-sterilized mineral soil (50.5 percent silt, 25.5 percent clay, and 24 percent sand, with a pH of about 7.6 and an organic matter content of about 2.9 percent) and water at a 1:1 volumetric ratio. The prepared mud was dispensed in 365 mL aliquots into 16-ounce (oz.) non-perforated plastic pots with a surface area of 86.59 square centimeters (cm^2) leaving a headspace of 3 centimeters (cm) in each pot. Mud was allowed to dry overnight prior to planting or transplanting. Rice seeds were planted in Sun Gro MetroMix® 306 planting mixture, which typically has a pH of about 6.0 to about 6.8 and an organic matter content of about 30 percent, in plastic plug trays. Seedlings at the second or third leaf stage of growth were transplanted into 860 mL of mud contained in 32-oz. non-perforated plastic pots with a surface area of 86.59 cm^2 4 days prior to herbicide application. The paddy was created by filling the headspace of the pots with 2.5 to 3 cm of water. When required to ensure good germination and healthy plants, a fungicide treatment and/or other chemical or physical treatment was applied. The plants were grown for 4-22 days in a greenhouse with an approximate 14 h photoperiod which was maintained at about 29° C. during the day and about 26° C. during the night. Nutrients were added as Osmocote® (19:6:12, N:P:K+minor nutrients) at 2 g per 16-oz. pot and 4 g per 32-oz. pot. […]
# Treatment requirements for each compound or herbicidal component were calculated based upon the rates being tested, the concentration of active ingredient or acid equivalent in the formulation, an application volume of 2 mL per component per pot, and an application area of 86.59 cm^2 per pot.
# For formulated compounds, a measured amount was placed in an individual 100 or 200 mL glass vial and was dissolved in a volume of 1.25% (v/v) Agri-Dex® crop oil concentrate to obtain application solutions. […]
smiles,measurement,setting,value
"COc1c(Cl)ccc(-c2nc(C(=O)O)c(Cl)c(N)c2F)c1F [Compound A Acid, 4-amino-3-chloro-6-(4-chloro-2-fluoro-3-methoxyphenyl)-5-fluoropyridine-2-carboxylic acid]",Visual Weed Control (%) - 22 DAA CYPRO Obs,Compound A Acid 10.6 gae/ha,0%
same,Visual Weed Control (%) - 22 DAA CYPRO Obs,Compound A Acid 21.2 gae/ha,40%
